Our source for the IC50 values is patent publication US8796324B2, “Substituted 2-acetamido-5-aryl-1,2,4-triazolones and use thereof” (Bayer Intellectual Property GmbH, priority 2009, dated 2014).

The structures appear in SMILES notation.

The target of one assay is T1, human V1a receptor (Homo sapiens, UniProt P37288).
T1 construct: expressed in transfected cells; host or cells: CHO K1 (constitutively expressing modified aequorin)
The experiment in a line: Cellular in vitro assay for determining the vasopressin receptor activity (aequorin luminescence). It is filed as cell-based. The conditions noted are these: CHO cell line transfected with the human V1a receptor; agonist [Arg8]-vasopressin; read-out: IC50 hV1a. From the text:
(§1) B-1. Cellular In Vitro Assay for Determining the Vasopressin Receptor Activity
(§2) The identification of agonists and antagonists of the V1a and V2 vasopressin receptors from humans and rats and also the quantification of the activity of the substances described here took place using recombinant cell lines. These cells derive originally from a hamster ovary epithelial cell (Chinese Hamster Ovary, CHO K1, ATCC: American Type Culture Collection, Manassas, Va. 20108, USA). The test cell lines constitutively express a modified form of the calcium-sensitive photoprotein aequorin, which, after reconstitution with the cofactor coelenterazine, emits light when there are increases in the free calcium concentration (Rizzuto R., Simpson A. W., Brini M., Pozzan T.; Nature 358 (1992) 325-327). In addition, the cells are stably transfected with the human or rat V1a or V2 receptors. In the case of the Gs-coupling V2 receptors, the cells are stably transfected with a further gene, which codes for the promiscuous Gα16 protein (Amatruda T. T., Steele D. A., Slepak V. Z., Simon M. I., Proc. Nat. Acad. Sci. USA 88 (1991), 5587-5591), either independently or as a fusion gene. The resulting vasopressin receptor test cells react to stimulation of the recombinantly expressed vasopressin receptors by intracellular release of calcium ions, which can be quantified by the resulting aequorin luminescence using a suitable luminometer (Milligan G., Marshall F., Rees S., Trends in Pharmaco. Sci. 17 (1996) 235-237).
(§3) On the day before the assay, the cells are plated out in culture medium (DMEM, 10% FCS, 2 mM glutamine, 10 mM HEPES) in 384-well microtiter plates and kept in a cell incubator (96% humidity, 5% v/v carbon dioxide, 37° C.). On the day of the assay, the culture medium is replaced by a Tyrode solution (140 mM sodium chloride, 5 mM potassium chloride, 1 mM magnesium chloride, 2 mM calcium chloride, 20 mM glucose, 20 mM HEPES), which additionally contains the cofactor coelenterazine (50 μM), and the microtiter plate is then incubated for a further 3-4 hours. The test substances in various concentrations are placed for 10 to 20 minutes in the wells of the microtiter plate before the agonist [Arg8]-vasopressin is added, and the resulting light signal is measured immediately in the luminometer. The IC50 values are calculated using the GraphPad PRISM computer program (Version 3.02).
(§4) The table below lists representative IC50 values for the compounds of the invention on the cell line transfected with the human V1a or V2 receptor: […]

The next assay concerns the target T2, human V2 receptor (Homo sapiens, UniProt P30518).
T2 construct: expressed in transfected cells; host or cells: CHO K1 (constitutively expressing modified aequorin; co-transfected with promiscuous G-alpha-16)
Described as above. In kind it is cell-based. Conditions: CHO cell line transfected with the human V2 receptor (and Gα16); agonist [Arg8]-vasopressin; read-out: IC50 hV2.
Excerpt: as §1, §2, §3, §4

T2 sequence (P30518 whole entry): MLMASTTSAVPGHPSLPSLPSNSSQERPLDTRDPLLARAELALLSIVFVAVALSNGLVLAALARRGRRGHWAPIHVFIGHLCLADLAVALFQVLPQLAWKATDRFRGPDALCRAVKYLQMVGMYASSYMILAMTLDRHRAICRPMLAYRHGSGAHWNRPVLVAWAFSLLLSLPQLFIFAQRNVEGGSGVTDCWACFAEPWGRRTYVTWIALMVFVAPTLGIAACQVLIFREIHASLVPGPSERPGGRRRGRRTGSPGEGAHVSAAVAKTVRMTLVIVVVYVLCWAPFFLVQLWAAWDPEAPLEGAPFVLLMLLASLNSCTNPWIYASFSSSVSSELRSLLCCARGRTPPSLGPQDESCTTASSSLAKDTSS
T1 sequence (P37288 whole entry): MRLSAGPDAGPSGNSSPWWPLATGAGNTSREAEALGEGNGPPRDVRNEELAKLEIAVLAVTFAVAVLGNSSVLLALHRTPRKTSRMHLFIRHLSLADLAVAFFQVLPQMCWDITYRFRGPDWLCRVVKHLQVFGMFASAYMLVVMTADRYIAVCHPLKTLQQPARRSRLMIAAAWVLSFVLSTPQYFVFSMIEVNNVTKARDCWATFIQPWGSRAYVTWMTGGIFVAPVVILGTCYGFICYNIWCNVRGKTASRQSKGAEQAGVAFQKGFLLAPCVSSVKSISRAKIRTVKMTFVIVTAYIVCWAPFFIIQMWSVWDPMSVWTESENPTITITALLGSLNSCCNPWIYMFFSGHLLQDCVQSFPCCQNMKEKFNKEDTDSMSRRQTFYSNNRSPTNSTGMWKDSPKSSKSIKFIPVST

For the compound `C=CCn1c(-c2ccc(Cl)cc2)nn(CC(=O)NC(CO)c2cccc(Cl)c2F)c1=O` (centres unmarked) [Example 168], the IC50 at human V1a receptor was 87 nM; on human V2 receptor, 76 nM.

As to `Cc1csc(-c2nn(CC(=O)NC(CO)c3cccc(Cl)c3F)c(=O)n2CC(C)C)c1Cl` (centres unmarked) [Example 172], the IC50 on human V1a receptor amounted to 91 nM; on human V2 receptor it was 136 nM.

In the case of `O=C(Cn1nc(-c2ccc(Cl)cc2)n(CC2CCCCC2)c1=O)NC(CO)c1cccc(Cl)c1F` (centres unmarked) [Example 182], the 50% inhibitory concentration (IC50) at human V1a receptor turned out to be 304 nM; on human V2 receptor, 28 nM.

For `O=C(Cn1nc(-c2ccc(Cl)cc2)n(Cc2ccccc2F)c1=O)NC(CO)c1cccc(F)c1F` (centres unmarked) [Example 184], the half-inhibitory concentration (IC50) at human V1a receptor was 72 nM; at human V2 receptor it was 26.6 nM.

On to `O=C(Cn1nc(-c2ccc(Cl)s2)n(Cc2ccccc2F)c1=O)NC(CO)c1cccc(F)c1F` (centres unmarked) [Example 185], for which the half-inhibitory concentration (IC50) at human V1a receptor is 55 nM; at human V2 receptor it was 45 nM.

On to `COc1ccccc1C(CCOC(N)=O)NC(=O)Cn1nc(-c2ccc(Cl)cc2)n(C[C@H](O)C(F)(F)F)c1=O` (stereo partly drawn) [Example 188, 3-[({3-(4-Chlorophenyl)-5-oxo-4-[(2S)-3,3,3-trifluoro-2-hydroxypropyl]-4,5-dihydro-1H-1,2,4-triazol-1-yl}acetyl)amino]-3-(2-methoxyphenyl)propyl carbamate], for which the 50% inhibitory concentration (IC50) on human V1a receptor turned out to be 8.2 nM; on human V2 receptor it was 9.9 nM.

For `NC(=O)OCC(NC(=O)Cn1cc(-c2ccc(Cl)cc2)n(CC(O)C(F)(F)F)c1=O)c1ccccc1C(F)(F)F` (centres unmarked) [Example 207, 2-({[4-(4-Chlorophenyl)-2-oxo-3-(3,3,3-trifluoro-2-hydroxypropyl)-2,3-dihydro-1H-imidazol-1-yl]acetyl}amino)-2-[2-(trifluoromethyl)phenyl]ethyl carbamate], the IC50 was 3.3 nM at human V1a receptor and 101 nM at human V2 receptor.
